Test results published in the supplement of paper PMC10307832.

What was measured:
Assay in all cases: relative viability (nuclei count vs DMSO), 5 days (fraction); higher = more cells survive
[1] = compound: C[C@@]1(C(=O)Nc2ccc(F)nc2)CCCN1c1nc(Nc2cc(C3CC3)n[nH]2)c2cccn2n1 + C[C@@H](Oc1cc(-c2cnn(C3CCNCC3)c2)cnc1N)c1c(Cl)ccc(F)c1Cl [Crizotinib] (partner 1 µM)
Summary of the method: (§1)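 For relative viability, nuclei counts in treated wells were divided by those in vehicle wells. Lung cancer cell lines had been pin-tool dosed in 1536-well plates the day after seeding and cultured for 5 days, then fixed and stained in one step (final 0.05% Triton X-100, 1% formaldehyde, 1 ug/ml Hoechst) and imaged at 4×. Doses were one drug alone or a fixed anchor-drug dose plus five library-drug doses (not always all listed) in √10 steps, and values are duplicate-plate medians.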

[2] = compound: C[C@@]1(C(=O)Nc2ccc(F)nc2)CCCN1c1nc(Nc2cc(C3CC3)n[nH]2)c2cccn2n1 + COc1cc2c(Oc3ccc(NC(=O)C4(C(=O)Nc5ccc(F)cc5)CC4)cc3F)ccnc2cc1OCCCN1CCOCC1 [Foretinib] (partner 0.25 µM)
Summary of the method: as §1

Motesanib + Dasatinib = compound: CC1(C)CNc2cc(NC(=O)c3cccnc3NCc3ccncc3)ccc21 [Motesanib] + Cc1nc(Nc2ncc(C(=O)Nc3c(C)cccc3Cl)s2)cc(N2CCN(CCO)CC2)n1 [Dasatinib] (partner 0.075 µM)
Summary of the method: as §1

Motesanib + Alpelisib = compound: CC1(C)CNc2cc(NC(=O)c3cccnc3NCc3ccncc3)ccc21 [Motesanib] + Cc1nc(NC(=O)N2CCC[C@H]2C(N)=O)sc1-c1ccnc(C(C)(C)C(F)(F)F)c1 [Alpelisib] (partner 2 µM)
Summary of the method: as §1

Cell Line	relative viability ([1]; first compound 0.04 µM)	relative viability ([1]; first compound 0.1265 µM)	relative viability ([1]; first compound 0.4 µM)	relative viability ([1]; first compound 1.265 µM)	relative viability ([2]; first compound 0.04 µM)	relative viability ([2]; first compound 0.1265 µM)	relative viability ([2]; first compound 0.4 µM)	relative viability ([2]; first compound 1.265 µM)	relative viability (Motesanib + Dasatinib; first compound 0.01 µM)	relative viability (Motesanib + Dasatinib; first compound 0.03162 µM)	relative viability (Motesanib + Dasatinib; first compound 0.1 µM)	relative viability (Motesanib + Dasatinib; first compound 0.3162 µM)	relative viability (Motesanib + Dasatinib; first compound 1 µM)	relative viability (Motesanib + Alpelisib; first compound 0.01 µM)	relative viability (Motesanib + Alpelisib; first compound 0.03162 µM)	relative viability (Motesanib + Alpelisib; first compound 0.1 µM)	relative viability (Motesanib + Alpelisib; first compound 0.3162 µM)	relative viability (Motesanib + Alpelisib; first compound 1 µM)
201T	0.993	0.943	0.933	0.973	0.747	0.629	0.353	0.573	0.575	0.519	0.559	0.595	0.535	1.08	1.05	1.01	0.857	1.06
A549	0.52	0.402	0.248	0.089	0.891	0.659	0.582	0.272	–	–	–	–	–	0.785	0.866	0.728	0.779	0.909
A-427	0.853	0.848	0.674	0.882	1.19	0.988	0.785	1.15	0.606	0.724	0.663	0.721	0.81	1.12	1.08	1.05	1.09	1.04
ABC-1	1.01	0.695	0.7	0.272	0.773	0.782	0.744	0.38	0.518	0.544	0.605	0.65	0.619	1.02	0.995	1.24	0.974	1.18
BEN	0.773	1.19	0.59	0.999	0.918	0.649	0.678	0.536	0.286	0.342	0.333	0.325	0.343	1.07	1.08	0.897	0.972	1.18
CAL-12T	0.509	0.487	0.346	0.161	1.15	1.06	0.897	0.4	0.414	0.339	0.479	0.522	0.546	1.22	1.31	1.26	1.44	1.11
COR-L23	0.737	0.653	0.494	0.333	0.967	0.865	0.762	0.695	0.561	0.59	0.515	0.499	0.451	0.719	0.783	0.802	0.736	0.781
COR-L 105	0.805	0.454	0.5	0.456	0.887	0.993	0.828	1.01	0.407	0.243	0.308	0.401	0.394	0.872	1.16	0.992	0.79	1.26
Calu-6	0.881	0.743	0.597	0.491	0.959	0.871	0.758	0.414	–	–	–	–	–	0.984	0.931	0.928	1.02	1.03
ChaGo-K-1	0.989	0.644	1.01	0.791	0.831	0.829	0.828	0.888	0.55	0.535	0.544	0.696	0.691	–	–	–	–	–
EBC-1	0.195	0.168	0.211	0.2	0.114	0.0828	0.0953	0.11	–	–	–	–	–	0.795	0.914	0.899	0.847	0.925
EKVX	0.929	0.862	0.612	0.679	0.684	0.751	0.602	0.253	0.592	0.462	0.527	0.654	0.505	0.778	0.883	0.875	0.922	0.895
EMC-BAC-2	0.675	0.697	0.66	0.816	0.849	0.721	0.327	0.574	0.292	0.34	0.342	0.339	0.303	0.76	0.742	0.768	0.731	0.704
EPLC-272H	0.977	0.857	0.676	1.16	0.57	–	0.558	0.796	0.344	0.405	–	0.421	0.287	0.908	1.12	0.898	0.897	0.914
H3255	0.865	0.979	0.793	0.924	1	1.1	0.883	0.787	0.304	0.38	0.473	0.302	0.338	0.78	0.7	0.762	0.684	0.771
HARA	1.02	0.995	1.21	1.1	0.802	0.78	0.652	1.01	0.225	0.2	0.215	0.303	0.3	0.808	0.852	0.815	0.943	0.831
HCC-15	0.749	0.63	0.66	0.714	0.906	0.485	0.614	0.686	0.648	0.53	0.648	0.758	0.723	0.97	0.885	0.969	0.972	0.931
HCC-44	0.732	0.696	0.513	0.597	–	–	–	–	–	–	–	–	–	0.771	0.774	0.862	0.785	0.827

Cell Line	relative viability ([1]; first compound 0.04 µM)	relative viability ([1]; first compound 0.1265 µM)	relative viability ([1]; first compound 0.4 µM)	relative viability ([1]; first compound 1.265 µM)	relative viability ([2]; first compound 0.04 µM)	relative viability ([2]; first compound 0.1265 µM)	relative viability ([2]; first compound 0.4 µM)	relative viability ([2]; first compound 1.265 µM)	relative viability (Motesanib + Dasatinib; first compound 0.01 µM)	relative viability (Motesanib + Dasatinib; first compound 0.03162 µM)	relative viability (Motesanib + Dasatinib; first compound 0.1 µM)	relative viability (Motesanib + Dasatinib; first compound 0.3162 µM)	relative viability (Motesanib + Dasatinib; first compound 1 µM)	relative viability (Motesanib + Alpelisib; first compound 0.01 µM)	relative viability (Motesanib + Alpelisib; first compound 0.03162 µM)	relative viability (Motesanib + Alpelisib; first compound 0.1 µM)	relative viability (Motesanib + Alpelisib; first compound 0.3162 µM)	relative viability (Motesanib + Alpelisib; first compound 1 µM)
HCC-78	0.31	0.212	0.216	0.307	0.505	0.323	0.347	0.421	0.342	0.406	0.291	0.391	0.437	0.337	0.304	0.35	0.356	0.333
HCC-366	0.612	0.442	0.388	0.0918	0.957	0.922	0.9	1.07	0.666	0.553	0.552	0.631	0.808	0.445	0.422	0.449	0.424	0.321
HCC-827	0.897	0.899	0.901	0.9	1.03	1.14	1.06	1.2	0.308	0.307	0.293	0.274	0.228	0.99	1.01	1.03	1.03	1.03
HOP-62	0.896	0.96	0.888	0.981	1.14	1.11	1.02	1.16	0.658	0.6	0.715	0.692	0.757	0.91	0.663	0.922	1.3	1.15
IA-LM	0.68	0.983	0.646	0.456	1.3	1.11	0.921	1.13	–	–	–	–	–	0.616	0.788	0.711	0.891	0.746
LC-2-ad	0.448	0.387	0.349	0.304	0.651	0.617	0.599	0.5	0.539	0.575	0.745	0.503	0.496	0.801	0.919	0.923	1.03	0.813
LCLC-97TM1	0.184	0.186	0.12	0.187	0.31	0.292	0.278	0.499	0.838	0.801	0.797	0.86	0.773	0.238	0.241	0.283	0.296	0.263
NCI-H522	–	–	–	–	–	–	–	–	0.754	0.835	0.921	0.862	0.864	–	–	–	–	–
NCI-H1299	0.963	0.956	0.97	0.96	1.21	1.06	0.585	1.05	–	–	–	–	–	1.03	1.09	1.15	1.11	1.12
NCI-H1395	–	–	–	–	1.05	0.84	0.932	0.921	0.425	0.476	0.42	0.443	0.417	1.04	0.922	0.992	0.998	1.02
NCI-H1623	–	–	–	–	0.658	0.82	0.57	0.672	0.481	0.567	0.562	0.556	0.538	–	–	–	–	–
NCI-H1650	0.966	0.813	0.9	0.366	1.53	1.16	0.984	1.08	0.374	0.337	0.33	0.329	0.298	–	–	–	–	–
NCI-H1703	0.586	0.535	0.792	–	0.294	0.303	0.309	0.273	–	–	–	–	–	0.294	0.283	0.211	0.183	0.239
NCI-H1792	0.896	0.677	0.62	0.473	–	–	–	–	–	0.749	0.808	0.953	0.767	0.702	0.63	0.78	0.757	0.685
NCI-H1793	–	–	–	–	0.664	0.566	–	0.715	0.393	0.388	0.376	0.416	0.405	0.795	0.673	0.75	0.761	0.676
NCI-H2342	–	–	–	–	1.02	0.906	0.812	0.917	0.271	0.312	0.336	0.279	0.317	–	–	–	–	–
SW 900	–	–	–	–	0.705	0.694	0.558	0.816	0.545	0.714	0.858	0.611	0.461	–	–	–	–	–
